Our source for the IC50 and T/C values is ChEMBL document CHEMBL1159206, “Synthesis and biological activity of esters in the trans-1,2-dihydroxy-1,2-dihydroacronycine series” (J Nat Prod, 1998).

pIC50: −log10 of the molar value.

In one test the test system is L1210. Description: Cytotoxicity against mouse L1210 cells after 48 hrs by […] assay. Format: functional, cell-based. The following applies: L1210, 48 h.
Test [1] has as its system P388. Description: Antitumor activity against mouse P388 cells implanted in B6D2F1 mouse assessed as median survival time at 25 mg/kg, ip relative to control. Format: functional. Conditions: route intraperitoneal.
Test [2] relates to P388. Description: Antitumor activity against mouse P388 cells implanted in B6D2F1 mouse assessed as median survival time at 12.5 mg/kg, ip relative to control. Format: functional. The following applies: route intraperitoneal.
For test [3], the system named is P388. Description: Antitumor activity against mouse P388 cells implanted in B6D2F1 mouse assessed as median survival time at 6.25 mg/kg, ip relative to control. The following applies: route intraperitoneal. Format: functional.
Test [4] deals with P388. Nature of the test: Antitumor activity against mouse P388 cells implanted in B6D2F1 mouse assessed as median survival time at 1.56 mg/kg, ip relative to control. The class given is functional. Conditions: route intraperitoneal.
The subject of test [5] is P388. Description: Antitumor activity against mouse P388 cells implanted in B6D2F1 mouse assessed as median survival time at 0.78 mg/kg, ip relative to control. The class given is functional. Conditions: route intraperitoneal.
The subject of test [6] is P388. Nature of the test: Antitumor activity against mouse P388 cells implanted in B6D2F1 mouse assessed as median survival time at 3.125 mg/kg, ip relative to control. The class given is functional. Conditions: route intraperitoneal.
For test [7], the system named is P388. Description: Antitumor activity against mouse P388 cells implanted in B6D2F1 mouse assessed as median survival time at 200 mg/kg, ip relative to control. Format: functional. Conditions: route intraperitoneal.

On to `COc1cc2c(c3c1c(=O)c1ccccc1n3C)C(=O)C(O)C(C)(C)O2` (racemic), for which, in the test on L1210, the negative-log IC50 (pIC50) (in general, −log10 of the IC50, conventionally taken in molar units) is 4.12.

On to `COc1cc2c(c3c1c(=O)c1ccccc1n3C)C(=O)C(O)(CC(C)=O)C(C)(C)O2` (racemic), for which the pIC50 with L1210 is 4.65.

Consider `COc1cc2c(c3c1c(=O)c1ccccc1n3C)[C@@H](OC(C)=O)[C@@H](OC(C)=O)C(C)(C)O2` (relative stereo), for which the T/C (in general, the ratio of treated to control) in the test on P388 [1] was found to be 268%.

For `COc1cc2c(c3c1c(=O)c1ccccc1n3C)[C@@H](OC(C)=O)[C@H](OC(C)=O)C(C)(C)O2` (racemic), the T/C in the test on P388 [2] is on record as 181%; in the test on P388 [3], 160%; with P388 [4] it was 136%; in the test on P388 [5], 122%; with P388 [6], 155%; in the test with P388 [1] it was 77%. The negative logarithm of the IC50 (pIC50) in the test on L1210 was 5.06.

As to `COc1cc2c(c3c1c(=O)c1ccccc1n3C)C=CC(C)(C)O2` [ACRONINE], the T/C in the test on P388 [7] is on record as 125%. In the test on L1210, this compound showed a pIC50 of 4.60.

`COc1cc2c(c3c1c(=O)c1ccccc1n3C)[C@@H](O)[C@H](OC(C)=O)C(C)(C)O2` (racemic) showed a negative-log IC50 (pIC50) with L1210 of 5.06.

In the test on L1210, `COc1cc2c(c3c1c(=O)c1ccccc1n3C)[C@@H](O)[C@H](OC(=O)CCl)C(C)(C)O2` (racemic) showed a pIC50 of 4.96.
